In patent US20250354999A1, “BIOMARKERS OF LYSOSOMAL STORAGE DISEASE” (Genzyme Corporation, priority 2022, published 2025):
“Also recorded” adds a separate entry of the source.

Legend:
Format in all cases: in vivo, human
[1] = test system: CD63; assay: CD63 level in CSF of type 3 Gaucher disease patients on treatment (Olink Explore; LEAP trial); conditions: GD3 patients, baseline, 26 weeks and 52 weeks on combination treatment of venglustat and imiglucerase
Method: For the measurement of protein levels in CSF, the following protocol was employed: Biomarker expression in CSF was measured using four Olink® Explore panels (Cardiometabolic, Inflammation, Neurology, and Oncology), as described, e.g., by Wik et al. (“Proximity Extension Assay in Combination with NextGeneration Sequencing for High-throughput Proteome-wide Analysis, 2021, Mol Cell Proteomics 20, 100168). Briefly, 10 μL of CSF samples and Olink controls were placed into a 384-well Sample Source Plate and then diluted 1:10, 1:100, 1:1000 and 1:100,000 in 384-well Sample Diluent Plates using Mosquito and Dragonfly liquid handlers (both from SPT Labtech). For immunoreaction, these diluted samples were mixed with the Olink® probes (DNA oligo-conjugated antibodies) in 384-well Incubation Plates using the Mosquito handler and incubated at 4° C. for 16-24 hours. The following day, reagent mixtures for the first PCR amplification step (PCR1 step) were added to the immunoreaction mixtures using the Dragonfly handler, and PCR1 reaction for the pre-amplification step was conducted using ProFlex PCR System (Applied Biosciences). […] The four libraries were analyzed by Next Generation Sequencing using NovaSeq 6000 (Illumina). […]

[2] = test system: CD63; assay: CD63 level in plasma of Fabry patients on treatment (Olink profiling; Sanofi-Venglustat Phase II ACT/LTS trial)
Method: CD63 was measured by Olink® profiling, as described below, using the Olink® Target96 Neuro-Exploratory panel (Olink Proteomics AB, Uppsala, Sweden) according to the manufacturer's instructions.
Protein detection can be performed using Olink® (Olink Proteomics AB, Uppsala, Sweden) profiling in accordance with the manufacturer's recommended protocols (for exemplary methods, see, e.g., Assarsson et al., PLoS ONE (2014) 9(4):e95192; and Jabbari et al., Journal of Neurology, Neurosurgery & Psychiatry (2019) 90:768-773). The Proximity Extension Assay (PEA) technology used for the Olink® protocol has been well described (Assarsson et al., 2014, supra), and enables 92 analytes per panel to be analysed simultaneously, using 1 μL of each sample. In brief, pairs of oligonucleotide-labelled antibody probes bind to their targeted protein, and if the two probes are brought in close proximity the oligonucleotides will hybridize in a pair-wise manner. The addition of a DNA polymerase leads to a proximity-dependent DNA polymerization event, generating a unique PCR target sequence. The resulting DNA sequence can subsequently be detected and quantified using a microfluidic real-time PCR instrument (Biomark HD, Fluidigm). Data is then quality controlled and normalized using an internal extension control and an inter-plate control, to adjust for intra- and inter-run variation. The final assay read-out is presented in Normalized Protein expression (NPX) values, which is an arbitrary unit on a log 2-scale where a high value corresponds to a higher protein expression. All assay validation data (e.g., detection limits, intra- and inter-assay precision data, etc.), experimental protocols, and data processing are available on the manufacturer's website (www.olink.com).
The ACT/LTS samples were taken from the Sanofi-Venglustat Phase II trial. This trial consisted only of male patients. The Sanofi-Venglustat Phase II trial was a longitudinal study, and patient plasma was collected at 6 set intervals: Baseline (0 weeks), 12 weeks, 26 weeks, 52 weeks, 104.2 weeks, and 156.4 weeks. There are missing timepoints for some patients. During this trial, all patients were treated with venglustat (a substrate reduction therapy-SRT).
Cohort 1 is a collection of plasma samples provided by Dr. Gavin Oudit from the University of Alberta. Briefly, these plasma samples were from a mix of male and female patients with ages ranging from 25 to 68. They were non-longitudinal samples (e.g. 1 sample per patient), and the plasma samples were a mix of treated Fabry patients (enzyme replacement therapy-ERT), untreated Fabry patients, and healthy control subjects.
Cohort 2 is a collection of plasma samples provided by Dr. Michael Mauer from the University of Minnesota. […]

[3] = test system: lyso-GL3; assay: lyso-GL3 level in plasma of Fabry patients on venglustat (ESI-LC-MS/MS)
Method: (§1) Glycosphingolipids (lyso-GL1, GL3, and lyso-GL3) were measured by ESI-LC-MS/MS according to the method described in Murugesan et al., Am J Hematol. (2016) 91(11):1082-1089. In brief, 20 μL aliquots of plasma were added to 1 mL of chloroform:methanol (2:3) in an Eppendorf tube, mixed and then centrifuged. Supernatant was removed and extracted with chloroform (220 μL) and water (520 μL) by mixing and centrifugation. The upper phase was re-extracted with chloroform and added to the lower phase. The combined sample was dried, resuspended in 100 μL methanol:water (9:1) and injected into an LC-MS/MS system for tandem mass spectroscopic analysis. Separation of glycosphingolipids and other matrix components was achieved using UPLC under gradient conditions with two mobile phases: 0.1% formic acid in water; and 0.1% formic acid in acetonitrile. Mass spectrometry (MS) was performed in select ion monitoring mode, typically using the parent (M+H^+) ion transition (e.g. m/z 462.5>282.4 for lyso-GL1). Assays were calibrated using known glycosphingolipid standards (dimethylpsychosine, 13C6-labelled lyso-GL3 (GelbChem), and C17-GL3 (Matreya LLC, cat no. 1523) as internal standards for lyso-GL1, lyso-GL3, and GL3 respectively).
(§2) The ACT/LTS samples were taken from the Sanofi-Venglustat Phase II trial. This trial consisted only of male patients. […]

[4] = test system: GL3; assay: GL3 level in plasma of Fabry patients on venglustat (ESI-LC-MS/MS); conditions: Fabry disease patients, venglustat clinical trial over time
Method: as §1, §2

[5] = Fabry disease patients vs healthy controls, during the trial period

## CC(C)(NC(=O)O[C@@H]1CN2CCC1CC2)c1csc(-c2ccc(F)cc2)n1 [venglustat, (3S)-1-azabicyclo[2.2.2]octan-3-yl N-{2-[2-(4-fluorophenyl)-1,3-thiazol-4-yl]propan-2-yl}carbamate]
[1]
  change of CD63 levels in CSF on treatment: consistently led to a decrease in CD63 levels
[2]; [5]
  return of CD63 to control levels: do not return to control levels during the trial period
[2]; Fabry disease patients, baseline to 156.4 weeks on treatment
  response of CD63 to treatment: decrease over a period of 30 months towards a healthy level; also recorded: show a response to treatment
[2]; Fabry disease patients, venglustat treatment
  time at which CD63 response to treatment is observed: 12 weeks
[2]; Fabry disease patients, venglustat treatment, baseline to 156 weeks
  first significant decrease in CD63 (estimated marginal mean, log 2): ≤ 26 week
[3]; [5]
  return of lyso-GL3 to control levels: do not return to control levels during the trial period
[3]; Fabry disease patients, venglustat clinical trial over time
  response of lyso-GL3 to treatment: show a response to treatment
[4]
  response of GL3 to treatment: show a response to treatment
